tested on: P. falciparum K1 (strain resistant to chloroquine and pyrimethamine), erythrocytic stages; assay: Plasmodium falciparum in vitro assay, [3H] hypoxanthine incorporation; format: cell-based; details: Plasmodium falciparum, K1, P. falciparum strain K1; [3H] hypoxanthine incorporation; read-out: IC50 (nM) on K1
How it was run: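 K1 strain parasites grown in human red cells, 2.5% haematocrit, 0.3% parasitaemia, 37 °C, 4% CO2/3% O2; compounds in seven serial doubling dilutions.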

Row | IC50 [nM] | Structure (SMILES)
1 | 86 | CC(=O)N1CCN(c2ccc(CN(C(=O)C=Cc3ccc(C(F)(F)F)nc3)[C@@H](Cc3ccccc3)C(=O)N(C)CCOCc3ccccn3)cc2)CC1 [Example 215, (S)-N-[4-(4-Acetyl-piperazin-1-yl)-benzyl]-N-(1-{methyl-[2-(pyridin-2-ylmethoxy)-ethyl]-carbamoyl}-2-phenyl-ethyl)-3-(6-trifluoromethyl-pyridin-3-yl)-acrylamide]
2 | 94 | CC(=O)N1CCN(c2ccc(CN(C(=O)C=Cc3ccc(C(F)(F)F)nc3)[C@@H](Cc3ccccc3)C(=O)N(C)CCOCCOCc3ccccc3)cc2)CC1 [Example 216, (S)-N-[4-(4-Acetyl-piperazin-1-yl)-benzyl]-N-(1-{[2-(2-benzyloxy-ethoxy)-ethyl]-methyl-carbamoyl}-2-phenyl-ethyl)-3-(6-trifluoromethyl-pyridin-3-yl)-acrylamide]
3 | 32 | CC(=O)N1CCN(c2ccc(CN(C(=O)C=Cc3ccc(C(F)(F)F)nc3)[C@@H](Cc3ccccc3)C(=O)N(C)CCOCC#N)cc2)CC1 [Example 217, (S)-N-[4-(4-Acetyl-piperazin-1-yl)-benzyl]-N-{1-[(2-cyanomethoxy-ethyl)-methyl-carbamoyl]-2-phenyl-ethyl}-3-(6-trifluoromethyl-pyridin-3-yl)-acrylamide]
4 | 40 | C=CCOCCN(C)C(=O)[C@H](Cc1ccccc1)N(Cc1ccc(N2CCN(C(C)=O)CC2)cc1)C(=O)C=Cc1ccc(C(F)(F)F)nc1 [Example 218, (S)-N-[4-(4-Acetyl-piperazin-1-yl)-benzyl]-N-{1-[(2-allyloxy-ethyl)-methyl-carbamoyl]-2-phenyl-ethyl}-3-(6-trifluoromethyl-pyridin-3-yl)-acrylamide]
5 | 52 | CN(CCN(C)C(=O)[C@H](Cc1ccccc1)N(Cc1ccc(-c2ccccn2)cc1)C(=O)C=Cc1ccc(C(F)(F)F)cc1)Cc1ccc(Br)o1 [Example 219, (S)-N-[1-({2-[(5-Bromo-furan-2-ylmethyl)-methyl-amino]-ethyl}-methyl-carbamoyl)-2-phenyl-ethyl]-N-(4-pyridin-2-yl-benzyl)-3-(4-trifluoromethyl-phenyl)-acrylamide]
6 | 29 | CN(CCN(C)C(=O)[C@H](Cc1ccccc1)N(Cc1ccc(-c2ccccn2)cc1)C(=O)C=Cc1ccc(C(F)(F)F)cc1)Cc1ccccc1 [Example 220, (S)-N-(1-{[2-(Benzyl-methyl-amino)-ethyl]-methyl-carbamoyl}-2-phenyl-ethyl)-N-(4-pyridin-2-yl-benzyl)-3-(4-trifluoromethyl-phenyl)-acrylamide]
7 | 20 | CN(CCN(C)C(=O)[C@H](Cc1ccccc1)N(Cc1ccc(-c2ccccn2)cc1)C(=O)C=Cc1ccc(C(F)(F)F)cc1)Cc1ccc(Cl)nc1 [Example 221, (S)-N-[1-({2-[(6-Chloro-pyridin-3-ylmethyl)-methyl-amino]-ethyl}-methyl-carbamoyl)-2-phenyl-ethyl]-N-(4-pyridin-2-yl-benzyl)-3-(4-trifluoromethyl-phenyl)-acrylamide]
8 | 13 | CN(CCN(C)C(=O)[C@H](Cc1ccccc1)N(Cc1ccc(-c2ccccn2)cc1)C(=O)C=Cc1ccc(C(F)(F)F)cc1)Cc1ccoc1 [Example 222, (S)-N-(1-{[2-(Furan-3-ylmethyl-methyl-amino)-ethyl]-methyl-carbamoyl}-2-phenyl-ethyl)-N-(4-pyridin-2-yl-benzyl)-3-(4-trifluoromethyl-phenyl)-acrylamide]
9 | 25 | CN(CCN(C)C(=O)[C@H](Cc1ccccc1)N(Cc1ccc(-c2ccccn2)cc1)C(=O)C=Cc1ccc(C(F)(F)F)cc1)Cc1ccco1 [Example 223, (S)-N-(1-{[2-(Furan-2-ylmethyl-methyl-amino)-ethyl]-methyl-carbamoyl}-2-phenyl-ethyl)-N-(4-pyridin-2-yl-benzyl)-3-(4-trifluoromethyl-phenyl)-acrylamide]
10 | 29 | CN(CCN(C)C(=O)[C@H](Cc1ccccc1)N(Cc1ccc(-c2ccccn2)cc1)C(=O)C=Cc1ccc(C(F)(F)F)cc1)Cc1ccccn1 [Example 224, (S)-N-(1-{Methyl-[2-(methyl-pyridin-2-ylmethyl-amino)-ethyl]-carbamoyl}-2-phenyl-ethyl)-N-(4-pyridin-2-yl-benzyl)-3-(4-trifluoromethyl-phenyl)-acrylamide]
11 | 20 | CN(CCN(C)C(=O)[C@H](Cc1ccccc1)N(Cc1ccc(-c2ccccn2)cc1)C(=O)C=Cc1ccc(C(F)(F)F)cc1)Cc1cccs1 [Example 225, (S)-N-(1-{Methyl-[2-(methyl-thiophen-2-ylmethyl-amino)-ethyl]-carbamoyl}-2-phenyl-ethyl)-N-(4-pyridin-2-yl-benzyl)-3-(4-trifluoromethyl-phenyl)-acrylamide]
12 | 75 | CN(CCN(C)C(=O)[C@H](Cc1ccccc1)N(Cc1ccc(-c2ccccn2)cc1)C(=O)C=Cc1ccc(C(F)(F)F)cc1)Cc1ccc(Cl)s1 [Example 226, (S)-N-[1-({2-[(5-Chloro-thiophen-2-ylmethyl)-methyl-amino]-ethyl}-methyl-carbamoyl)-2-phenyl-ethyl]-N-(4-pyridin-2-yl-benzyl)-3-(4-trifluoromethyl-phenyl)-acrylamide]
13 | 18 | CN(CCN(C)C(=O)[C@H](Cc1ccccc1)N(Cc1ccc(-c2ccccn2)cc1)C(=O)C=Cc1ccc(C(F)(F)F)cc1)Cc1ccc(Br)nc1 [Example 227, (S)-N-[1-({2-[(6-Bromo-pyridin-3-ylmethyl)-methyl-amino]-ethyl}-methyl-carbamoyl)-2-phenyl-ethyl]-N-(4-pyridin-2-yl-benzyl)-3-(4-trifluoromethyl-phenyl)-acrylamide]
14 | 9 | CN(CCN(C)C(=O)[C@H](Cc1ccccc1)N(Cc1ccc(-c2ccccn2)cc1)C(=O)C=Cc1ccc(C(F)(F)F)cc1)Cc1ccc(CO)o1 [Example 228, (S)-N-[1-({2-[(5-Hydroxymethyl-furan-2-ylmethyl)-methyl-amino]-ethyl}-methyl-carbamoyl)-2-phenyl-ethyl]-N-(4-pyridin-2-yl-benzyl)-3-(4-trifluoromethyl-phenyl)-acrylamide]
15 | 9 | COc1ccc(CN(C)CCN(C)C(=O)[C@H](Cc2ccccc2)N(Cc2ccc(-c3ccccn3)cc2)C(=O)C=Cc2ccc(C(F)(F)F)cc2)cn1 [Example 229, (S)-N-[1-({2-[(6-Methoxy-pyridin-3-ylmethyl)-methyl-amino]-ethyl}-methyl-carbamoyl)-2-phenyl-ethyl]-N-(4-pyridin-2-yl-benzyl)-3-(4-trifluoromethyl-phenyl)-acrylamide]
16 | 10 | CN(CCN(C)C(=O)[C@H](Cc1ccccc1)N(Cc1ccc(-c2ccccn2)cc1)C(=O)C=Cc1ccc(C(F)(F)F)cc1)Cc1ccc(C(F)(F)F)nc1 [Example 230, (S)-N-[1-(Methyl-{2-[methyl-(6-trifluoromethyl-pyridin-3-ylmethyl)-amino]-ethyl}-carbamoyl)-2-phenyl-ethyl]-N-(4-pyridin-2-yl-benzyl)-3-(4-trifluoromethyl-phenyl)-acrylamide]
17 | 30 | CN(CCN(C)C(=O)[C@H](Cc1ccccc1)N(Cc1ccc(-c2ccccn2)cc1)C(=O)C=Cc1ccc(C(F)(F)F)cc1)Cc1cccnc1 [Example 231, (S)-N-(1-{Methyl-[2-(methyl-pyridin-3-ylmethyl-amino)-ethyl]-carbamoyl}-2-phenyl-ethyl)-N-(4-pyridin-2-yl-benzyl)-3-(4-trifluoromethyl-phenyl)-acrylamide]
18 | 33 | CN(CCN(C)C(=O)[C@H](Cc1ccccc1)N(Cc1ccc(-c2ccccn2)cc1)C(=O)C=Cc1ccc(C(F)(F)F)cc1)Cc1ccsc1 [Example 232, (S)-N-(1-{Methyl-[2-(methyl-thiophen-3-ylmethyl-amino)-ethyl]-carbamoyl}-2-phenyl-ethyl)-N-(4-pyridin-2-yl-benzyl)-3-(4-trifluoromethyl-phenyl)-acrylamide]
19 | 53 | Cc1ccccc1CN(C)CCN(C)C(=O)[C@H](Cc1ccccc1)N(Cc1ccc(-c2ccccn2)cc1)C(=O)C=Cc1ccc(C(F)(F)F)cc1 [Example 233, (S)-N-[1-(Methyl-{2-[methyl-(2-methyl-benzyl)-amino]-ethyl}-carbamoyl)-2-phenyl-ethyl]-N-(4-pyridin-2-yl-benzyl)-3-(4-trifluoromethyl-phenyl)-acrylamide]
20 | 64 | Cc1ccc(CN(C)CCN(C)C(=O)[C@H](Cc2ccccc2)N(Cc2ccc(-c3ccccn3)cc2)C(=O)C=Cc2ccc(C(F)(F)F)cc2)c(C)c1 [Example 234, (S)-N-[1-({2-[(2,4-Dimethyl-benzyl)-methyl-amino]-ethyl}-methyl-carbamoyl)-2-phenyl-ethyl]-N-(4-pyridin-2-yl-benzyl)-3-(4-trifluoromethyl-phenyl)-acrylamide]
21 | 58 | COc1cc(CN(C)CCN(C)C(=O)[C@H](Cc2ccccc2)N(Cc2ccc(N3CCOCC3)cc2)C(=O)C=Cc2ccc(C(F)(F)F)cc2)cc(OC)c1 [Example 235, (S)-N-[1-({2-[(3,5-Dimethoxy-benzyl)-methyl-amino]-ethyl}-methyl-carbamoyl)-2-phenyl-ethyl]-N-(4-morpholin-4-yl-benzyl)-3-(4-trifluoromethyl-phenyl)-acrylamide]
22 | 68 | COc1cc(CN(C)CCN(C)C(=O)[C@H](Cc2ccccc2)N(Cc2ccc(N3CCN(C(C)=O)CC3)cc2)C(=O)C=Cc2ccc(C(F)(F)F)cc2)cc(OC)c1 [Example 236, (S)-N-[4-(4-Acetyl-piperazin-1-yl)-benzyl]-N-[1-({2-[(3,5-dimethoxy-benzyl)-methyl-amino]-ethyl}-methyl-carbamoyl)-2-phenyl-ethyl]-3-(4-trifluoromethyl-phenyl)-acrylamide]
23 | 55 | CC(=O)N1CCN(c2ccc(CN(C(=O)C=Cc3ccc(C(F)(F)F)cc3)[C@@H](Cc3ccccc3)C(=O)N(C)CCN(C)Cc3ccc(N(C)CCO)cc3)cc2)CC1 [Example 237, (S)-N-[4-(4-Acetyl-piperazin-1-yl)-benzyl]-N-(1-{[2-({4-[(2-hydroxy-ethyl)-methyl-amino]-benzyl}-methyl-amino)-ethyl]-methyl-carbamoyl}-2-phenyl-ethyl)-3-(4-trifluoromethyl-phenyl)-acrylamide]

— US20110224210A1, “NOVEL BIS-AMIDES AS ANTI-MALARIAL AGENTS” (priority 2008, published 2011)
